Experimental data: BindingDB's records for doi:10.1016/j.ejmech.2019.01.017 (Qilu University of Technology (Shandong Academy of Sciences), 2019)

Biological target: RAC-beta serine/threonine-protein kinase (Homo sapiens, UniProt P31751)
Assay: Inhibition of PKBbeta (unknown origin)

Sequence of RAC-beta serine/threonine-protein kinase (P31751 whole entry): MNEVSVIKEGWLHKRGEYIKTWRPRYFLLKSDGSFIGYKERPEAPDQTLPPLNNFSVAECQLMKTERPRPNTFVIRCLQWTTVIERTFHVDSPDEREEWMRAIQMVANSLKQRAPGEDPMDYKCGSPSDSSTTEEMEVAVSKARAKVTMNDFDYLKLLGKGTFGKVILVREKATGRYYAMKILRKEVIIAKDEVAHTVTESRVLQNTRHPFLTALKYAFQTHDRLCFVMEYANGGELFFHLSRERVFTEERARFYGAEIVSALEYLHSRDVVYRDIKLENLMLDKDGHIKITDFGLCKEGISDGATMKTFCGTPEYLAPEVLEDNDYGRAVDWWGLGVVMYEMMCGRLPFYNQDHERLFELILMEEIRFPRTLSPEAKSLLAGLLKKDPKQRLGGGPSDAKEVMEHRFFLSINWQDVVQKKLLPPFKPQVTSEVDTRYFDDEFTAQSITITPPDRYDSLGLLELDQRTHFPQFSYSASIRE

IC50: 1640 nM
Compound: Cc1ccc2[nH]c(=O)c(C(=O)/C=C/c3nc4ccccc4[nH]3)c(-c3ccccc3)c2c1
